In general, EC50 refers to the concentration at which the effect is half-maximal. A higher EC50 goes with lower potency in that assay.

The target of this assay is human GPR119 (Homo sapiens (Human), UniProt Q8TDV5). Nature of the assay: AlphaScreen cAMP assay in Min-6/hGPR119 cells (GPR119 activation, intracellular cAMP). It counts as cell-based. As to conditions: MIN6 cells stably transfected with human GPR119; 45 minutes' incubation at RT; AlphaScreen cAMP Assay Kit. The method in brief:
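MIN6 cells stably expressing human GPR119 plated 10000 cells/well and held 24 h at 37° C. Compounds applied in stimulating buffer, pH 7.4, with 0.5 mM IBMX, 0.1% BSA, 1% DMSO final, for 45 min at RT. Intracellular cAMP read by AlphaScreen.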
On the technique in general: Alpha assays give light when donor and acceptor beads are brought close together.

Structures can show the parent of a compound that is named as a salt.

Chain of human GPR119 (Q8TDV5 whole entry): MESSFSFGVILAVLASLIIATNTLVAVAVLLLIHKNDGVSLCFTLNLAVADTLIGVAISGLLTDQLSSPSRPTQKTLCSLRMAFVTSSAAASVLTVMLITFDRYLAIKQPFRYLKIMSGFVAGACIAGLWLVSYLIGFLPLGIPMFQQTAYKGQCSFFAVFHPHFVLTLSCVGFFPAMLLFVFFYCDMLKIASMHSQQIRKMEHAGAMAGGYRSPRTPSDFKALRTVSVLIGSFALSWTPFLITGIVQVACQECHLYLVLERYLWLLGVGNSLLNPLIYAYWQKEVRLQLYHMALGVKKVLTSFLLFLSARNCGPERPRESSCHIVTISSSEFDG

`CCC1CC(=O)NN=C1c1ccc2nc(-c3ccc(OCCOC)cc3)oc2c1` (centres unmarked) [Example 214, 5-ethyl-6-{2-[4-(2-methoxy-ethoxy)-phenyl]-benzoxazol-6-yl}-4,5-dihydro-2H-pyridazin-3-one] came in with an EC50 of 122 nM.

In turn, `CCC1CC(=O)NN=C1c1ccc2nc(-c3ccc(OCCN(CC)C(C)C)cc3)oc2c1` (centres unmarked) [Example 215, 5-ethyl-6-(2-{4-[2-(ethyl-isopropyl-amino)-ethoxy]-phenyl}-benzoxazol-6-yl)-4,5-dihydro-2H-pyridazin-3-one] had an EC50 of 106 nM.

`CCC1CC(=O)NN=C1c1ccc2nc(-c3cccc(OCCN4CC(C)OC(C)C4)c3)oc2c1` (centres unmarked) [Example 216, 6-(2-{3-[2-(2,6-dimethyl-morpholin-4-yl)-ethoxy]-phenyl}-benzoxazol-6-yl)-5-ethyl-4,5-dihydro-2H-pyridazin-3-one]: a half-maximal response (EC50) required 639 nM.

`CCC1CC(=O)NN=C1c1ccc2nc(-c3cccc(OCCN(C)C(C)C)c3)oc2c1` (centres unmarked) [Example 217] gave an EC50 of 2410 nM.

In turn, `CCC1CC(=O)NN=C1c1ccc2nc(-c3cccc(OCCN(CC)C(C)C)c3)oc2c1` (centres unmarked) [Example 218] registered an EC50 of 840 nM.

Compound `CCC1CC(=O)NN=C1c1ccc2nc(-c3ccc(OCCN(C)C(C)C)cc3)oc2c1` (centres unmarked) [Example 219, 5-ethyl-6-(2-{4-[2-(isopropyl-methyl-amino)-ethoxy]-phenyl}-benzoxazol-6-yl)-4,5-dihydro-2H-pyridazin-3-one] returned an EC50 of 438 nM.

Regarding `CCC1CC(=O)NN=C1c1ccc2nc(-c3ccc(OCCN4CC(C)OC(C)C4)cc3)oc2c1` (centres unmarked) [Example 220, 6-(2-{4-[2-(2,6-dimethyl-morpholin-4-yl)-ethoxy]-phenyl}-benzoxazol-6-yl)-5-ethyl-4,5-dihydro-2H-pyridazin-3-one], the EC50 came to 84 nM.

Compound `CCC1CC(=O)NN=C1c1ccc2nc(-c3ccc(OC(C)CN4CCOCC4)cc3)oc2c1` (centres unmarked) [Example 221, 5-ethyl-6-{2-[4-(1-methyl-2-morpholin-4-yl-ethoxy)-phenyl]-benzoxazol-6-yl}-4,5-dihydro-2H-pyridazin-3-one] registered an EC50 of 204 nM.

Compound `CCC1CC(=O)NN=C1c1ccc2nc(-c3ccc(OCCN(CC)CC)cc3)oc2c1` (centres unmarked) [Example 222, 6-{2-[4-(2-diethylamino-ethoxy)-phenyl]-benzoxazol-6-yl}-5-ethyl-4,5-dihydro-2H-pyridazin-3-one] displayed an EC50 of 299 nM.

Turning to `CCC[C@@H]1C(=O)NN=C(c2ccc3nc(-c4ccc(OCCN5C[C@@H](C)O[C@@H](C)C5)cc4)oc3c2)[C@H]1C` [Example 223, Trans-6-(2-{4-[2-(2S,6R-dimethyl-morphoin-4-yl)-ethoxy]-phenyl}-benzoxazol-6-yl)-5-methyl-4-propyl-4,5-dihydro-2H-pyridazin-3-one], the EC50 was 46 nM.

`CCC1CC(=O)NN=C1c1ccc2nc(-c3ccc(OC[C@@H]4CCCN4C(=O)OC(C)(C)C)cc3)oc2c1` (some centres unmarked) [Example 226]: a half-maximal effect (EC50) was put at 47 nM.

The compound `CCC1CC(=O)NN=C1c1ccc2nc(-c3ccc(OC[C@H]4CCCN4C(=O)OC(C)(C)C)cc3)oc2c1` (some centres unmarked) [Example 227] showed an EC50 of 52 nM.

Compound `CCC1CC(=O)NN=C1c1ccc2nc(-c3ccc(OC(C)(C)CN4CCCC4)cc3)oc2c1` (centres unmarked) [Example 228, 6-{2-[4-(1,1-dimethyl-2-pyrrolidin-1-yl-ethoxy)-phenyl]-benzoxazol-6-yl}-5-ethyl-4,5-dihydro-2H-pyridazin-3-one] returned an EC50 of 549 nM.

In turn, `CCC1CC(=O)NN=C1c1ccc2nc(-c3ccc(OCC(C)(C)N4CCCC4)cc3)oc2c1` (centres unmarked) [Example 229, 5-ethyl-6-(2-{4-[2-methyl-2-(pyrrolidin-1-yl)propoxy]phenyl}-1,3-benzoxazol-6-yl)-2,3,4,5-tetrahydropyridazin-3-one] yielded an EC50 of 398 nM.

Take `CCC1CC(=O)NN=C1c1ccc2nc(-c3cccc(OC(C)CN4CCCCC4)c3)oc2c1` (centres unmarked) [Example 230, 5-ethyl-6-{2-[3-(1-methyl-2-piperidin-1-yl-ethoxy)-phenyl]-benzoxazol-6-yl}-4,5-dihydro-2H-pyridazin-3-one]: the EC50 is 1190 nM.

As to `CCC1CC(=O)NN=C1c1ccc2nc(-c3ccc(OC(C)(C)CN4CCOCC4)cc3)oc2c1` (centres unmarked) [Example 231, 6-{2-[4-(1,1-dimethyl-2-morpholin-4-yl-ethoxy)-phenyl]-benzoxazol-6-yl}-5-ethyl-4,5-dihydro-2H-pyridazin-3-one], the EC50 came out at 120 nM.

For the compound `CCC1CC(=O)NN=C1c1ccc2nc(-c3ccc(OCC(C)(C)N4CCOCC4)cc3)oc2c1` (centres unmarked) [Example 232, 5-ethyl-6-{2-[4-(2-methyl-2-morpholin-4-yl-propoxy)-phenyl]-benzoxazol-6-yl}-4,5-dihydro-2H-pyridazin-3-one], the EC50 is 69 nM.

Compound `CCC1CC(=O)NN=C1c1ccc2nc(-c3ccc(OCC4CCCCN4C)cc3)oc2c1` (centres unmarked) [Example 233, 5-ethyl-6-{2-[4-(1-methyl-2-piperidin-2-yl-methoxy)-phenyl]-benzoxazol-6-yl}-4,5-dihydro-2H-pyridazin-3-one] displayed an EC50 of 848 nM.

As for `CCC1CC(=O)NN=C1c1ccc2nc(-c3ccc(OC4CCCCCN4C)cc3)oc2c1` (centres unmarked) [Example 234, 5-ethyl-6-{2-[4-(1-methyl-2-azepan-2-yloxy)-phenyl]-benzoxazol-6-yl}-4,5-dihydro-2H-pyridazin-3-one], the EC50 amounted to 306 nM.

In the case of `CC[C@H]1CC(=O)NN=C1c1ccc2nc(-c3ccc(OCC(C)N4CCCCC4)cc3)oc2c1` (stereo partly drawn) [Example 236, 5(S)-ethyl-6-{2-[4-(2-piperidin-1-yl-propoxy)-phenyl]-benzoxazol-6-yl}-4,5-dihydro-2H-pyridazin-3-one], the EC50 was determined as 1100 nM.

For `CC[C@@H]1CC(=O)NN=C1c1ccc2nc(-c3ccc(OCC(C)N4CCCCC4)cc3)oc2c1` (stereo partly drawn) [Example 237, 5(R)-ethyl-6-{2-[4-(2-piperidin-1-yl-propoxy)-phenyl]-benzoxazol-6-yl}-4,5-dihydro-2H-pyridazin-3-one], the response was half-maximal at 73 nM (EC50).

`CCC1CC(=O)NN=C1c1ccc2nc(-c3ccc(OC[C@@H]4CCCN4)cc3)oc2c1` (some centres unmarked) [Example 238, 5-ethyl-6-{2-[4-(S-pyrrolidin-2-yl-methoxy)-phenyl]-benzoxazol-6-yl}-4,5-dihydro-2H-pyridazin-3-one×HCl] had an EC50 of 2950 nM.

`CCC1CC(=O)NN=C1c1ccc2nc(-c3ccc(OC[C@H]4CCCN4)cc3)oc2c1` (stereo partly drawn) [Example 239, 5-ethyl-6-(2-{4-[(2R)-pyrrolidin-2-ylmethoxy]phenyl}-1,3-benzoxazol-6-yl)-2,3,4,5-tetrahydropyridazin-3-one] showed an EC50 of 1650 nM.

In the case of `CCC1CC(=O)NN=C1c1ccc2nc(-c3ccc(OC[C@@H]4CCCN4C(C)C)cc3)oc2c1` (some centres unmarked) [Example 240, 5-ethyl-6-{2-[4-(1-isopropyl-5-pyrrolidin-2-yl-methoxy)-phenyl]-benzoxazol-6-yl}-4,5-dihydro-2H-pyridazin-3-one], a half-maximal response (EC50) required 186 nM.

The compound `CCC1CC(=O)NN=C1c1ccc2nc(-c3ccc(OC[C@H]4CCCN4C(C)C)cc3)oc2c1` (some centres unmarked) [Example 241, 5-ethyl-6-{2-[4-(1-isopropyl-R-pyrrolidin-2-yl-methoxy)-phenyl]-benzoxazol-6-yl}-4,5-dihydro-2H-pyridazin-3-one] yielded an EC50 of 191 nM.

Take `CCC1CC(=O)NN=C1c1ccc2nc(-c3ccc(OC[C@@H]4CCCN4C)cc3)oc2c1` (some centres unmarked) [Example 242, 5-ethyl-6-{2-[4-(1-methyl-S-pyrrolidin-2-yl-methoxy)-phenyl]-benzoxazol-6-yl}-4,5-dihydro-2H-pyridazin-3-one]: the EC50 worked out at 296 nM.

The values above are taken from US8772323B2, “Benzoxazole- and tetrahydrobenzoxazole-substituted pyridazinones as GPR119 agonists” (Boehringer Ingelheim International GmbH, priority 2010, dated 2014).
